{
  "source": "a compilation of properties of binary mixtures (doi:10.1016/j.molliq.2012.09.002)",
  "assay": "xn = mol fraction of the nth substance listed",
  "conditions": "101 kPa",
  "data": [
    {"smiles": "CN(CCO)CCO", "note": "+ CCCCCC[n+]1ccn(C)c1.F[B-](F)(F)F", "values": [
      {"measurement": "viscosity", "setting": "318.15 K, x1 = 1", "value": 27.5, "unit": "mPa·s"},
      {"measurement": "viscosity", "setting": "323.15 K, x1 = 1", "value": 22, "unit": "mPa·s"}
    ]},
    {"smiles": "CCCCCC[n+]1ccn(C)c1.F[B-](F)(F)F", "note": "+ CN(CCO)CCO", "values": [
      {"measurement": "viscosity", "setting": "303.15 K, x2 = 0", "value": 85, "unit": "mPa·s"},
      {"measurement": "viscosity", "setting": "303.15 K, x2 = 0.097", "value": 81.7, "unit": "mPa·s"},
      {"measurement": "viscosity", "setting": "303.15 K, x2 = 0.192", "value": 78.6, "unit": "mPa·s"},
      {"measurement": "viscosity", "setting": "303.15 K, x2 = 0.2909", "value": 75.6, "unit": "mPa·s"},
      {"measurement": "viscosity", "setting": "303.15 K, x2 = 0.5936", "value": 67.1, "unit": "mPa·s"},
      {"measurement": "viscosity", "setting": "303.15 K, x2 = 0.6935", "value": 64.6, "unit": "mPa·s"},
      {"measurement": "viscosity", "setting": "303.15 K, x2 = 0.8824", "value": 60.1, "unit": "mPa·s"},
      {"measurement": "viscosity", "setting": "308.15 K, x2 = 0", "value": 69, "unit": "mPa·s"},
      {"measurement": "viscosity", "setting": "308.15 K, x2 = 0.097", "value": 65.9, "unit": "mPa·s"},
      {"measurement": "viscosity", "setting": "308.15 K, x2 = 0.192", "value": 63.1, "unit": "mPa·s"},
      {"measurement": "viscosity", "setting": "308.15 K, x2 = 0.2909", "value": 60.3, "unit": "mPa·s"},
      {"measurement": "viscosity", "setting": "308.15 K, x2 = 0.3916", "value": 57.6, "unit": "mPa·s"},
      {"measurement": "viscosity", "setting": "308.15 K, x2 = 0.4949", "value": 55.1, "unit": "mPa·s"},
      {"measurement": "viscosity", "setting": "308.15 K, x2 = 0.5936", "value": 52.7, "unit": "mPa·s"},
      {"measurement": "viscosity", "setting": "308.15 K, x2 = 0.6935", "value": 50.5, "unit": "mPa·s"},
      {"measurement": "viscosity", "setting": "308.15 K, x2 = 0.7928", "value": 48.3, "unit": "mPa·s"},
      {"measurement": "viscosity", "setting": "308.15 K, x2 = 0.8824", "value": 46.5, "unit": "mPa·s"},
      {"measurement": "viscosity", "setting": "313.15 K, x2 = 0", "value": 55, "unit": "mPa·s"},
      {"measurement": "viscosity", "setting": "313.15 K, x2 = 0.097", "value": 52.5, "unit": "mPa·s"},
      {"measurement": "viscosity", "setting": "313.15 K, x2 = 0.192", "value": 50.2, "unit": "mPa·s"},
      {"measurement": "viscosity", "setting": "313.15 K, x2 = 0.2909", "value": 48, "unit": "mPa·s"},
      {"measurement": "viscosity", "setting": "313.15 K, x2 = 0.3916", "value": 45.8, "unit": "mPa·s"},
      {"measurement": "viscosity", "setting": "313.15 K, x2 = 0.4949", "value": 43.7, "unit": "mPa·s"},
      {"measurement": "viscosity", "setting": "313.15 K, x2 = 0.6935", "value": 40, "unit": "mPa·s"},
      {"measurement": "viscosity", "setting": "313.15 K, x2 = 0.7928", "value": 38.3, "unit": "mPa·s"},
      {"measurement": "viscosity", "setting": "318.15 K, x2 = 0", "value": 43, "unit": "mPa·s"},
      {"measurement": "viscosity", "setting": "318.15 K, x2 = 0.097", "value": 41.1, "unit": "mPa·s"},
      {"measurement": "viscosity", "setting": "318.15 K, x2 = 0.192", "value": 39.3, "unit": "mPa·s"},
      {"measurement": "viscosity", "setting": "318.15 K, x2 = 0.2909", "value": 37.6, "unit": "mPa·s"},
      {"measurement": "viscosity", "setting": "318.15 K, x2 = 0.3916", "value": 35.9, "unit": "mPa·s"},
      {"measurement": "viscosity", "setting": "318.15 K, x2 = 0.5936", "value": 32.8, "unit": "mPa·s"},
      {"measurement": "viscosity", "setting": "318.15 K, x2 = 0.6935", "value": 31.4, "unit": "mPa·s"},
      {"measurement": "viscosity", "setting": "318.15 K, x2 = 0.7928", "value": 30.1, "unit": "mPa·s"},
      {"measurement": "viscosity", "setting": "318.15 K, x2 = 0.8824", "value": 28.9, "unit": "mPa·s"},
      {"measurement": "viscosity", "setting": "323.15 K, x2 = 0", "value": 36, "unit": "mPa·s"},
      {"measurement": "viscosity", "setting": "323.15 K, x2 = 0.097", "value": 34.2, "unit": "mPa·s"},
      {"measurement": "viscosity", "setting": "323.15 K, x2 = 0.192", "value": 32.6, "unit": "mPa·s"},
      {"measurement": "viscosity", "setting": "323.15 K, x2 = 0.2909", "value": 31, "unit": "mPa·s"},
      {"measurement": "viscosity", "setting": "323.15 K, x2 = 0.3916", "value": 29.5, "unit": "mPa·s"},
      {"measurement": "viscosity", "setting": "323.15 K, x2 = 0.4949", "value": 28, "unit": "mPa·s"},
      {"measurement": "viscosity", "setting": "323.15 K, x2 = 0.5936", "value": 26.7, "unit": "mPa·s"},
      {"measurement": "viscosity", "setting": "323.15 K, x2 = 0.6935", "value": 25.5, "unit": "mPa·s"},
      {"measurement": "viscosity", "setting": "323.15 K, x2 = 0.7928", "value": 24.3, "unit": "mPa·s"},
      {"measurement": "viscosity", "setting": "323.15 K, x2 = 0.8824", "value": 23.3, "unit": "mPa·s"}
    ]}
  ]
}
